Measurements taken from ChEMBL document CHEMBL4184082 (Bioorg Med Chem Lett, 2018).
Values after ≈ are worked out from the molar mass of the structure shown.

Legend:
[1] = Thermodynamic solubility of the compound; type: physicochemical; conditions: read-out: Therm_solubility
Mus musculus = assay: Reversal of thermal injury-induced muscle damage in C57BL/6 mouse assessed as reduction in Evans blue dye retention time at 10 mg/kg, po administered once daily via gavage treated for 10 days prior to thermal injury on day 4 and subsequent Evans blue dye injection on day 8 measured on day 9 post last dose relative to control; type: functional; design: scale not given: the % may be the effect or the level left
Rattus norvegicus [2] = assay: Tumorigenic activity in rat assessed as effect on cell proliferation in non-glandular stomach at 30 mg/kg administered for 14 days measured on post last dose by Ki-67 staining based histopathological analysis relative to control; type: ADME, organism-based; conditions: in vivo, 336 h
Rattus norvegicus [3] = assay: Tumorigenic activity in rat assessed as effect on cell proliferation in non-glandular stomach at 100 mg/kg administered for 14 days measured on post last dose by Ki-67 staining based histopathological analysis relative to control; type: ADME, organism-based; conditions: in vivo, 336 h
Rattus norvegicus [4] = assay: Tumorigenic activity in rat assessed as effect on cell proliferation in non-glandular stomach at 300 mg/kg administered for 6 days and subsequent treatment at 200 mg/kg for 3 days measured on post last dose by Ki-67 staining based histopathological analysis relative to control; type: ADME, organism-based; conditions: in vivo
Rattus norvegicus [5] = assay: Toxicity in rat assessed as reduction in body weight at 300 mg/kg administered for 6 days; type: organism-based; conditions: in vivo, 144 h
Rattus norvegicus [6] = assay: Toxicity in rat assessed as effect on food intake at 300 mg/kg administered for 6 days; type: organism-based; conditions: in vivo, 144 h
[7] = AUC (0 to last) in rat at 30 mg/kg; type: ADME, organism-based; design: dose 30 mg/kg, time 0 - last; conditions: in vivo
[8] = AUC (0 to last) in rat at 100 mg/kg; type: ADME, organism-based; design: dose 100 mg/kg, time 0 - last; conditions: in vivo
[9] = AUC (0 to last) in rat at 300 mg/kg measured on day 8; type: ADME, organism-based; design: dose 300 mg/kg, time 0 - last; conditions: in vivo
[10] = AUC (0 to last) in rat at 300 mg/kg; type: ADME, organism-based; design: dose 300 mg/kg, time 0 - last; conditions: in vivo

`Cc1cc(SCc2sc(-c3ccc(C(F)(F)F)cc3)nc2C)ccc1OCC(=O)O` [GW501516] showed a solubility thermodynamic [1] of 250 µM (≈ 113 µg/mL), an Activity (Mus musculus) of 48% and an Activity (Rattus norvegicus [2]) of 34%. The Activity (Rattus norvegicus [3]) was 81%, the Activity (Rattus norvegicus [4]) was 190% and the Activity (Rattus norvegicus [5]) was “Toxic”. For the same compound, the Activity (Rattus norvegicus [6]) was “Toxic”, the AUC(0-t) [7] was 72 µg·h/mL and the AUC(0-t) [8] was 613 µg·h/mL. It also gave an AUC(0-t) [9] of 2270 µg·h/mL.
For `C/C(=C\COc1ccccc1CN(C)C(=O)c1ccc(-c2ccco2)cc1)CCC(=O)O`, the AUC(0-t) [8] was 48 µg·h/mL and the AUC(0-t) [10] was 201 µg·h/mL.
